Key:
[1] = test system: UVB-induced vessel dilation; experiment: Example 6: dermal blood vessel area (CD31 staining) after UVB; type: in vivo, Skh-1 hairless mice; conditions: UVB + 0.1% in 25% DMSO + 75% ethanol, 100 μl on back skin three times weekly, 10 weeks; dermis
[2] = test system: UVB-induced wrinkle formation; experiment: Example 6: UVB-induced skin wrinkling; type: in vivo, Skh-1 hairless mice; conditions: UVB + 0.1% in 25% DMSO + 75% ethanol, 100 μl on back skin three times weekly, 10 weeks; category 0 (no wrinkle) to 4 (severe wrinkle)
back skin of mice = experiment: Example 5: skin irritation score on back skin; type: in vivo, mice (FVB strain); conditions: 0.1% in 25% DMSO + 75% ethanol, 5 μl on back skin, score 0 (no erythema) to 4
Procedure: The hair of the back skin of mice (FVB strain, female, 7 weeks of age, n=3/group) was clipped by an electric clipper on day 0. 5 μl of test sample solution (˜1 cm diameter) was applied on the back skin. After 24 hours (day 1), skin irritation was measured on the basis of a scoring system (0: no erythema; 1: very slight erythema; 2: well-defined erythema; 3: moderate erythema; 4: several erythema and edema) and a second dose administered. After a second 24 hours (day 2), skin irritation was measured and a third dose administered. After a third 24 hours (day 3), skin irritation was again measured.

[3] = biological target: T1, Omi/HtrA2 (His-Omi 134-458) (Homo sapiens, UniProt O43464); conditions: cited from earlier work
T1 construct: His
T1 sequence (O43464 134-458): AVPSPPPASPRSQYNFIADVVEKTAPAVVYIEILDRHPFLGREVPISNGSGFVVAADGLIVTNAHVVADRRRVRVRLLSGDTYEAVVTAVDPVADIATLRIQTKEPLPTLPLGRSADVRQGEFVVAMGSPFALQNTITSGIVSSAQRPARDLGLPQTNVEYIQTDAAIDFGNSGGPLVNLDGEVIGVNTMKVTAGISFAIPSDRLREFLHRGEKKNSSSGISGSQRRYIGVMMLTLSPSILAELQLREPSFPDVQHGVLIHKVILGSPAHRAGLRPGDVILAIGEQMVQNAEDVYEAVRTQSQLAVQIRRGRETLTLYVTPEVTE

[4] = test system: UVB-induced wrinkle formation; experiment: Example 3: UVB-induced skin wrinkling; type: in vivo, hairless Skh-1 mice; conditions: 100 μl on back skin three times weekly, 10 weeks, category 0 (no wrinkle) to 4 (severe wrinkle)
Procedure: (§1) Five groups of mice (7-week-old female hairless Skh-1 mice, n=3/group) were used: group 1: UVB+1% ucf-101 in DMSO; group 2: UVB+DMSO control; group 3: UVB+0.1% ucf-101 in acetone; group 4: UVB+acetone control; group 5: no UVB control.
(§2) Groups 1, 2, 3 and 4 were exposed to UVB irradiation using fluorescent lamps (Southern New England Ultraviolet) to deliver 0.35 mW/cm^2 at the dorsal skin surface of the mice. After irradiation, the indicated samples (100 μl each) for each group were applied to the back skin. This procedure was repeated three times weekly for ten weeks, to simulate chronic UVB exposure. […] The total cumulative dose was 6.54 J/cm^2 UVB.
(§3) After 10 weeks, skin wrinkling was evaluated using five categories (0: no wrinkle; 1: slight wrinkle; 2: clear wrinkle; 3: strong wrinkle; 4: severe wrinkle). Mice of group 1 and group 2 were sacrificed and back skin samples were snap-frozen in liquid nitrogen. Immunohistochemical staining was performed on 7-micrometer frozen sections using a monoclonal rat anti-mouse CD31 antibody (BD Pharmingen). Representative sections were obtained from UVB irradiated mice and were analyzed using a Nikon E-600 microscope. Images were captured with a Spot digital camera (Diagnostic Instruments), and morphometric analyses were performed using the IP-LAB software. Areas occupied by blood vessels were determined in the dermis.

mice ears [5] = experiment: Example 4: effects of test samples on ear thickness; type: in vivo, mice (FVB strain); conditions: 0.1% in 25% DMSO + 75% ethanol, 10 μl on days 0, 1, 2
Procedure: Control thickness of mice ears (FVB strain, female, 7 weeks of age, n=3/group) was measured with a thickness gauge (Mitsutoyo Corp.) on day 0. After measuring the thickness of both ears, 10 μl of test sample solution was applied to the left ear and 10 μl of solvent was applied to the right ear. After 24 hours (day 1), ear thickness was measured and a second dose administered (left ear: test solution, right ear: solvent). After a second 24 hours (day 2), ear thickness was measured and a third dose administered (left ear: test solution, right ear: solvent).

[6] = test system: various other serine proteases; conditions: various other serine proteases tested; cited from earlier work
UVB-irradiated mice ears = experiment: Example 2: ear thickness on UVB-exposed skin; type: in vivo, mice (Swiss Webster strain); conditions: 1% in DMSO; for Left ear thickness (mean): UVB 80 mJ/cm^2, 5 μl on days 0, 1, 2
Procedure: The ear thickness of mice (Swiss Webster strain, male, 7 weeks of age, n=3/group) was measured with a thickness gauge (Mitsutoyo Corp.) on day 0. After measuring the thickness of both ears, both ears were UVB-irradiated (80 mJ/cm^2). 5 μl of 1% ucf-101 in DMSO was applied to the left ear and 5 μl of DMSO was applied to the right ear. After 24 hours (day 1), ear thickness was measured and a second dose administered (left ear 1% ucf-101 in DMSO; right ear: DMSO). After a second 24 hours (day 2), ear thickness was again measured and a third dose administered (left ear 1% ucf-101 in DMSO; right ear: DMSO). Ear thickness was then monitored over four additional consecutive days (days 3-6).

mice ears [7] = experiment: Example 1: effect on ear thickness (skin irritancy); type: in vivo, mice (FVB strain); conditions: for Left ear thickness (mean): 10 μl on left ear
Procedure: Control thickness of mice ears (FVB strain, male, 7 weeks of age, n=3/group) was measured with a thickness gauge (Mitsutoyo Corp.). After measuring the thickness of both ears, 10 μl of ucf-101 solution (1.0% or 0.1%) was applied to the left ear and 10 μl of solvent was applied to the right ear. Ear thickness was measured for three consecutive days after administration.

[8] = test system: caspase-9 (−/−) null fibroblasts; conditions: cited from earlier work
[9] = test system: UVB-induced vessel dilation; experiment: Example 3: dermal blood vessel area (CD31 staining) after UVB; type: in vivo, hairless Skh-1 mice; conditions: UVB + 1% in DMSO, 100 μl on back skin three times weekly, 10 weeks; dermis
Procedure: as §1, §2, §3

caspase 1 = biological target: T2, caspase 1 (Homo sapiens, UniProt P29466); conditions: cited from earlier work
T2 sequence (P29466 120-297 limits assumed): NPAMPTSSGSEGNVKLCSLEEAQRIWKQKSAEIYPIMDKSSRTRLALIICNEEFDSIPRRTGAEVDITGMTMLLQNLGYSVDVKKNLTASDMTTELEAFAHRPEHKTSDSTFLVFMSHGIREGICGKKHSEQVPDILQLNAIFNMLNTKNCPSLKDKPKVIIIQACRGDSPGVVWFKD
T2 sequence (P29466 317-404 limits assumed): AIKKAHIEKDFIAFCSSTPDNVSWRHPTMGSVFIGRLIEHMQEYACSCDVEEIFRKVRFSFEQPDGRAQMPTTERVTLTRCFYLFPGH

caspase 4 = biological target: T3, caspase 4 (Homo sapiens, UniProt P49662); conditions: cited from earlier work
T3 sequence (P49662 81-270 limits assumed): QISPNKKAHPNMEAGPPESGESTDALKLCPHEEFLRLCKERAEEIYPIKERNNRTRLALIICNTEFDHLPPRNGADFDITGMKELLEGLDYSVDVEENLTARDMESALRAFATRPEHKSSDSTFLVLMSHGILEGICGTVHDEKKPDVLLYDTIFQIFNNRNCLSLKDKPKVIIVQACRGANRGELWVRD
T3 sequence (P49662 290-377 limits assumed): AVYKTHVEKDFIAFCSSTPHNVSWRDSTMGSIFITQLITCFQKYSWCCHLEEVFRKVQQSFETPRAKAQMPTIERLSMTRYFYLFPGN

caspase 3 = biological target: T4, caspase 3 (Homo sapiens, UniProt P42574); conditions: cited from earlier work
T4 sequence (P42574 29-175 limits assumed): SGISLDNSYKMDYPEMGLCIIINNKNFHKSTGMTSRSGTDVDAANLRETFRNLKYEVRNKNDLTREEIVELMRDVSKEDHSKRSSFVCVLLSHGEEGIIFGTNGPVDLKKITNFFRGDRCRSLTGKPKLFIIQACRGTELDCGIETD
T4 sequence (P42574 176-277 limits assumed): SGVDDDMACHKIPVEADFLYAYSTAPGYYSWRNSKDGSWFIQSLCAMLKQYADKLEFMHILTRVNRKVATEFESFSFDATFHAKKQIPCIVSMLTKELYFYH

caspase 7 = biological target: T5, caspase 7 (Homo sapiens, UniProt P55210); conditions: cited from earlier work
T5 sequence (P55210 24-198 limits assumed): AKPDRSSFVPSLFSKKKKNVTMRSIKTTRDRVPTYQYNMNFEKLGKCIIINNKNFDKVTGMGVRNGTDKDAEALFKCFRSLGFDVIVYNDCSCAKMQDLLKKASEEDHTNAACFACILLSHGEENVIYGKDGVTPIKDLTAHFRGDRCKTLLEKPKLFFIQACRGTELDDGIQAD
T5 sequence (P55210 207-303 limits assumed): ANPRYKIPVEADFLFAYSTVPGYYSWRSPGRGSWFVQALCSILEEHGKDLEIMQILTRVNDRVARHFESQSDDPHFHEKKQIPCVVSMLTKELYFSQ

In the case of `CC(C)C[C@H](CC(=O)NO)C(=O)N[C@@H](Cc1ccc2ccccc2c1)C(=O)N[C@@H](C)C(N)=O` [TAPI-0], the “Percent of vessel area (mean)” value [1] is reported as 8.9% and the “Wrinkle category (mean)” value [2] is reported as 1.00.
With `NC[C@H]1CC[C@H](C(=O)O)CC1` [Tranexamic acid] the “Percent of vessel area (mean)” value [1] was 8.7%, the “Wrinkle category (mean)” value [2] was 2.00 and the skin irritation score (back skin of mice; day 0) was 0. For the same compound, the skin irritation score (back skin of mice; day 1) was 0, the skin irritation score (back skin of mice; day 2) was 0 and the skin irritation score (back skin of mice; day 3) was 0.
For `O=C1C(=Cc2ccc(-c3ccccc3[N+](=O)[O-])o2)C(=O)N(c2ccccc2)C(=S)N1c1ccccc1` [Ucf-101], the IC50 [3] is listed as 9.5 µM, the “Wrinkle category (mean)” value ([4]; UVB + 0.1% in acetone) is listed as 1.67 and the “Wrinkle category (mean)” value ([4]; UVB + 1% in DMSO) is listed as 1.33. The “Left ear thickness (mean)” value (mice ears [5]; day 0 (before application)) was 25.7 ×0.01 mm, the “Left ear thickness (mean)” value (mice ears [5]; day 1) was 26.3 ×0.01 mm and the “Left ear thickness (mean)” value (mice ears [5]; day 2) was 27.3 ×0.01 mm. The “Left ear thickness (mean)” value (mice ears [5]; day 3) was 28.3 ×0.01 mm, the IC50 [6] was 200 µM and the “Percent of vessel area (mean)” value [1] was 4.7%. The “Left ear thickness (mean)” value (UVB-irradiated mice ears; day 0 (before UVB and application)) was 31.0 ×0.01 mm, the “Left ear thickness (mean)” value (UVB-irradiated mice ears; day 1) was 36.3 ×0.01 mm and the “Left ear thickness (mean)” value (UVB-irradiated mice ears; day 2) was 40.0 ×0.01 mm. The “Left ear thickness (mean)” value (UVB-irradiated mice ears; day 3) was 42.3 ×0.01 mm, the “Left ear thickness (mean)” value (UVB-irradiated mice ears; day 4) was 42.7 ×0.01 mm and the “Left ear thickness (mean)” value (UVB-irradiated mice ears; day 5) was 39.3 ×0.01 mm. The “Left ear thickness (mean)” value (UVB-irradiated mice ears; day 6) was 38.3 ×0.01 mm, the “ear thickness (irritancy) compared to control” value (UVB-irradiated mice ears; UVB-exposed ears) was “did not increase ear thickness” and the “Left ear thickness (mean)” value (mice ears [7]; 0.1% in acetone, day 0 (before application)) was 29.0 ×0.01 mm. For the same compound, the “Left ear thickness (mean)” value (mice ears [7]; 0.1% in acetone, day 1) was 30.0 ×0.01 mm, the “Left ear thickness (mean)” value (mice ears [7]; 0.1% in acetone, day 2) was 29.3 ×0.01 mm and the “Left ear thickness (mean)” value (mice ears [7]; 0.1% in acetone, day 3) was 29.0 ×0.01 mm. For the same compound, the “irritancy (ear thickness compared to solvent alone)” value (mice ears [7]; 1% in DMSO or 0.1% in acetone) was “not an irritant”, the “Left ear thickness (mean)” value (mice ears [7]; 1% in DMSO, day 0 (before application)) was 28.0 ×0.01 mm and the “Left ear thickness (mean)” value (mice ears [7]; 1% in DMSO, day 1) was 28.7 ×0.01 mm. The “Left ear thickness (mean)” value (mice ears [7]; 1% in DMSO, day 2) was 28.7 ×0.01 mm, the “Left ear thickness (mean)” value (mice ears [7]; 1% in DMSO, day 3) was 28.3 ×0.01 mm and the “Wrinkle category (mean)” value [2] was 1.00. The “block of Omi/HtrA2 induced cell death” value [8] was “block Omi/HtrA2 induced cell death”, the “Percent of vessel area (mean)” value [9] was 7.1% and the skin irritation score (back skin of mice; day 0) was 0. It also gave a skin irritation score (back skin of mice; day 1) of 0, a skin irritation score (back skin of mice; day 2) of 0 and a skin irritation score (back skin of mice; day 3) of 0.
In the case of Ac-YVAD-CHO, the Ki (caspase 1) is listed as roughly 0.01 µM, the Ki (caspase 4) is listed as roughly 0.01 µM and the Ki (caspase 3) is listed as no less than 50 µM. The Ki (caspase 7) was no less than 50 µM.
In the case of zVAD-FMK, the inhibition (caspase 1) is listed as “inhibits”, the inhibition (caspase 4) is listed as “inhibits” and the “Percent of vessel area (mean)” value [1] is listed as 8.8%. The “Wrinkle category (mean)” value [2] was 1.67, the inhibition (caspase 3) was “inhibits” and the inhibition (caspase 7) was “inhibits”.

Source: patent US20050250799A1, “Protease inhibitors for treatment of wrinkles” (priority 2004, published 2005)
